# Source: patent publication US20070015662A1, “Herbicide/safener combination” (Bayer CropScience GmbH, priority 2005, published 2007)
# What was measured:
# [1] = test system: Sinapis alba, Chrysanthemum segetum, Avena sativa, Stellaria media, Echinochloa crus-galli, Lolium multiflorum, Setaria viridis, Abutilon theophrasti …; assay: Pre-emergence action against weeds (greenhouse pot test, optical scoring); format: in vivo, monocotyledonous and dicotyledonous weed plants; conditions: pre-emergence method; 500 g or less of herbicide (A) per hectare; herbicide/safener combination with safeners II-1, II-9, III-1, b-11, b-14, IX-A3; scored after 3 to 4 weeks
# Description: Seeds or rhizome pieces of monocotyledonous and dicotyledonous weed plants were placed in sandy loam soil in cardboard pots and covered with soil. The active compounds (A) and (B), formulated in the form of wettable powders or emulsion concentrates, were then applied to the surface of the covering soil in various dosages as aqueous suspensions or emulsions using a water application rate of 300 to 800 I/ha (converted).
# After the treatment, the pots were placed in a greenhouse and kept under good growth conditions for the weeds. Optical scoring of the damage to the plants or emerged plants was carried out after emergence of the test plants after a trial period of 3 to 4 weeks, in comparison to untreated controls. As shown by the results, the tested herbicide/safener combinations have good herbicidal pre-emergence activity against a broad spectrum of weed grasses and broad-leaved weeds.
# [2] = test system: Sinapis alba, Echinochloa crus-galli, Lolium multiflorum, Chrysanthemum segetum, Setaria viridis, Abutilon theophrasti, Amaranthus retroflexus, Panicum …; assay: Post-emergence action against weeds (greenhouse pot test, visual scoring); format: in vivo, monocotyledonous and dicotyledonous weeds; conditions: post-emergence method, three-leaf stage; 500 g or less of herbicide (A) per hectare; herbicide/safener combination with safeners II-1, II-9, III-1, b-11, b-14, IX-A3; scored after about three to four weeks
# Experimental: Seeds or rhizome pieces of monocotyledonous and dicotyledonous weeds were placed into sandy loam soil in plastic pots, covered with soil and grown in a greenhouse under good growth conditions. Three weeks after sowing, the test plants were treated at the three-leaf stage. The compounds according to the invention, formulated as wettable powders or as emulsion concentrates, were sprayed onto the green parts of the plants at various dosages using a water application rate of 300 to 800 I/ha (converted). The test plants were stood in the greenhouse under optimum growth conditions for about three to four weeks, and the action of the preparations was then scored visually in comparison to untreated controls. Post-emergence, too, the herbicide/safener combinations according to the invention have good herbicidal activity against a broad spectrum of economically important weed grasses and broad-leaved weeds.
# [3] = test system: cotton, oilseed rape, sugar beet and Gramineae crops such as barley, wheat, rye, millet, corn or rice; assay: Compatibility with crop plants (greenhouse, visual scoring); format: in vivo; conditions: pre-emergence method or post-emergence method; herbicide/safener combination with safeners II-1, II-9, III-1, b-11, b-14, IX-A3; four to five weeks after application
# Description: In further greenhouse trials, seeds of a relatively large number of crop plants and weeds were placed into sandy loam soil and covered with soil. Some of the pots were immediately treated as described in Section 1, the others were placed in a greenhouse until the plants had developed two to three true leaves and were then sprayed with various dosages of the herbicide/safener combinations according to the invention, as described in Section 2.
compound,measurement,setting,value
CCC1(C)CC(S(=O)(=O)Cc2cc(F)ccc2F)=NO1 (stereo not shown) [I-2.2],herbicidal activity against harmful plants (optical scoring of damage vs untreated controls),[1],very good herbicidal activity
same,herbicidal activity against harmful plants (visual scoring vs untreated controls),[2],very good herbicidal activity
same,damage to crop plants (visual scoring),[3],did not cause any damage
CC1(C)CC(S(=O)(=O)Cc2c(F)cccc2F)=NO1 [I-3.1],herbicidal activity against harmful plants (optical scoring of damage vs untreated controls),[1],very good herbicidal activity
same,herbicidal activity against harmful plants (visual scoring vs untreated controls),[2],very good herbicidal activity
same,damage to crop plants (visual scoring),[3],did not cause any damage
CCC1(C)CC(S(=O)(=O)Cc2c(F)cccc2F)=NO1 (stereo not shown) [I-3.2],herbicidal activity against harmful plants (optical scoring of damage vs untreated controls),[1],very good herbicidal activity
same,herbicidal activity against harmful plants (visual scoring vs untreated controls),[2],very good herbicidal activity
same,damage to crop plants (visual scoring),[3],did not cause any damage
CC1(C)CC(S(=O)(=O)Cc2cccc3c2OCCO3)=NO1 [I-21.1],herbicidal activity against harmful plants (optical scoring of damage vs untreated controls),[1],very good herbicidal activity
same,herbicidal activity against harmful plants (visual scoring vs untreated controls),[2],very good herbicidal activity
same,damage to crop plants (visual scoring),[3],did not cause any damage
CCC1(C)CC(S(=O)(=O)Cc2cccc3c2OCCO3)=NO1 (stereo not shown) [I-21.2],herbicidal activity against harmful plants (optical scoring of damage vs untreated controls),[1],very good herbicidal activity
same,herbicidal activity against harmful plants (visual scoring vs untreated controls),[2],very good herbicidal activity
same,damage to crop plants (visual scoring),[3],did not cause any damage
CC1(C)CC(S(=O)(=O)Cc2cccc3c2OC(F)(F)C(F)(F)O3)=NO1 [I-22.1],herbicidal activity against harmful plants (optical scoring of damage vs untreated controls),[1],very good herbicidal activity
same,herbicidal activity against harmful plants (visual scoring vs untreated controls),[2],very good herbicidal activity
same,damage to crop plants (visual scoring),[3],did not cause any damage
CCC1(C)CC(S(=O)(=O)Cc2cccc3c2OC(F)(F)C(F)(F)O3)=NO1 (stereo not shown) [I-22.2],herbicidal activity against harmful plants (optical scoring of damage vs untreated controls),[1],very good herbicidal activity
same,herbicidal activity against harmful plants (visual scoring vs untreated controls),[2],very good herbicidal activity
same,damage to crop plants (visual scoring),[3],did not cause any damage
CC1(C)CC(S(=O)(=O)Cc2cccc3c2OC(F)(F)O3)=NO1 [I-23.1],herbicidal activity against harmful plants (optical scoring of damage vs untreated controls),[1],very good herbicidal activity
same,herbicidal activity against harmful plants (visual scoring vs untreated controls),[2],very good herbicidal activity
same,damage to crop plants (visual scoring),[3],did not cause any damage
CCC1(C)CC(S(=O)(=O)Cc2cccc3c2OC(F)(F)O3)=NO1 (stereo not shown) [I-23.2],herbicidal activity against harmful plants (optical scoring of damage vs untreated controls),[1],very good herbicidal activity
same,herbicidal activity against harmful plants (visual scoring vs untreated controls),[2],very good herbicidal activity
same,damage to crop plants (visual scoring),[3],did not cause any damage
CC1(C)CC(S(=O)(=O)Cc2cccc3c2OCC3)=NO1 [I-24.1],herbicidal activity against harmful plants (optical scoring of damage vs untreated controls),[1],very good herbicidal activity
same,herbicidal activity against harmful plants (visual scoring vs untreated controls),[2],very good herbicidal activity
same,damage to crop plants (visual scoring),[3],did not cause any damage
CCC1(C)CC(S(=O)(=O)Cc2cccc3c2OCC3)=NO1 (stereo not shown) [I-24.2],herbicidal activity against harmful plants (optical scoring of damage vs untreated controls),[1],very good herbicidal activity
same,herbicidal activity against harmful plants (visual scoring vs untreated controls),[2],very good herbicidal activity
same,damage to crop plants (visual scoring),[3],did not cause any damage
"CC1(C)CC(S(=O)(=O)Cc2cc3c(cc2Cl)OCO3)=NO1 [I-52.1, 3-{[(6-Chloro-1,3-benzodioxol-5-yl)methyl]sulfonyl}-5,5-dimethyl-4,5-dihydroisoxazole]",herbicidal activity against harmful plants (optical scoring of damage vs untreated controls),[1],very good herbicidal activity
same,herbicidal activity against harmful plants (visual scoring vs untreated controls),[2],very good herbicidal activity
same,damage to crop plants (visual scoring),[3],did not cause any damage
same,melting point,,170 °C
CCC1(C)CC(S(=O)(=O)Cc2cc3c(cc2Cl)OCO3)=NO1 (stereo not shown) [I-52.2],herbicidal activity against harmful plants (optical scoring of damage vs untreated controls),[1],very good herbicidal activity
same,herbicidal activity against harmful plants (visual scoring vs untreated controls),[2],very good herbicidal activity
same,damage to crop plants (visual scoring),[3],did not cause any damage
Cn1nc(C(F)(F)F)c(CS(=O)(=O)C2=NOC(C)(C)C2)c1OC(F)F [I-67.1],herbicidal activity against harmful plants (optical scoring of damage vs untreated controls),[1],very good herbicidal activity
same,herbicidal activity against harmful plants (visual scoring vs untreated controls),[2],very good herbicidal activity
same,damage to crop plants (visual scoring),[3],did not cause any damage
CCC1(C)CC(S(=O)(=O)Cc2c(C(F)(F)F)nn(C)c2OC(F)F)=NO1 (stereo not shown) [I-67.2],herbicidal activity against harmful plants (optical scoring of damage vs untreated controls),[1],very good herbicidal activity
same,herbicidal activity against harmful plants (visual scoring vs untreated controls),[2],very good herbicidal activity
same,damage to crop plants (visual scoring),[3],did not cause any damage
Cn1nc(C(F)(F)F)c(CS(=O)(=O)C2=NOC(C)(C)C2)c1Cl [I-77.1],herbicidal activity against harmful plants (optical scoring of damage vs untreated controls),[1],very good herbicidal activity
same,herbicidal activity against harmful plants (visual scoring vs untreated controls),[2],very good herbicidal activity
same,damage to crop plants (visual scoring),[3],did not cause any damage
